We go through one molecule from patent US4695589A, “Alpha-(aminoalkyl-4-hydroxy-3-(alkylthio)benzenemethanols” (Sterling Drug Inc., priority 1983, dated 1987).

Where a name gives a salt, the structure may show the parent alone. A value given as a limit tells only on which side of the number the result lay.

The subject of assay [1] is histamine-induced bronchoconstriction in the dog. Kind of assay: Block of histamine-induced bronchoconstriction in the dog (β-adrenergic stimulant activity). The format is in vivo.
Assay [2] has as its system isolated rabbit ear artery. As to the kind of experiment: Vasodilator activity, isolated rabbit ear artery perfusion pressure. To be noted: Oryctolagus cuniculus; 1 × 10^-5 M; read-out: Rabbit Ear Artery vasodilation (percentage reduction in perfusion pressure). The text has this: (§1) Vasodilator activity was judged on the basis of observed reduction in perfusion pressure in the hind limb vasculature of the anesthetized dog determined according to the procedure described by Jandhyala et al., European J. Pharm. 17, 357 (1972), and also on the basis of percent reduction in perfusion pressure as measured in the isolated rabbit ear artery according to the method described by De LaLande et al., Aust. J. Exp. Biol. Med. Sci. 43, 639 (1965).
^d Vasodilation is expressed as the percentage reduction in perfusion
pressure from the control level at the indicated molar dose.

Assay [3] relates to unanesthetized spontaneous hypertensive rat. As to the kind of experiment: Antihypertensive activity, single oral medication in the spontaneous hypertensive rat (SH Rat). The format is in vivo. To be noted: Rattus norvegicus; single oral dose required to induce a 40 mm average reduction in systolic blood pressure; read-out: Antihypertensive Activity SH Rat AHD40 mg./kg. P.O. The procedure:
Antihypertensive activity was determined on the basis of the observed reduction in systolic blood pressure measured according to the method of H. Kersten et al., J. Lab. and Clin. Med. 32, 1090 (1947) following a single oral medication in the unanesthetized spontaneous hypertensive rat described by Okamato et al., Japan Circulation J. 27, 282 (1963).
^a AHD40 = single oral dose required to induce a 40 mm average
reduction in systolic blood pressure in the unanesthetized spontaneous
^f Actual reduction in blood pressure (in mm Hg) observed at the […]

Assay [4] has as its system heart rate increase elicited by isoproterenol in the pentobarbitalized dog. As to the kind of experiment: β-adrenergic blocking activity in the pentobarbitalized dog. The class given is in vivo. To be noted: Canis lupus familiaris. The procedure: The β-adrenergic blocking activity was determined in the pentobarbitalized dog as judged by the ability of the test compound to inhibit the elevation is heart rate elicited by a 0.5 mcg./kg. i.v. injection of isoproterenol.
^e AED50 = approximate intravenous dose required to cause 50%
inhibition of the heart rate increase elicited by isoproterenol in the
^h Actual percentage inhibition of heart rate increase above control
level observed at the indicated dose.

In assay [5] the test system is hind limb vasculature of the anesthetized dog. As to the kind of experiment: Vasodilator activity, dog-leg perfusion. The format is in vivo. The settings on record: Canis lupus familiaris; approximate intraarterial dose causing 50% reduction in perfusion pressure in hind limb; read-out: Vasodilator Activity Dog-Leg Perfusion AED50.
Excerpt: as §1
^c AED50 =approximate intraarterial dose required to cause a 50%
reduction in perfusion pressure in the hind limb of the anesthetized dog.

Take `COc1ccc(CC(C)NCC(O)c2ccc(OC(C)=O)c(SC)c2)cc1` (stereo not drawn) [Example 2, 4-hydroxy-α-<{[2-(4-methoxyphenyl-1-methylethyl]amino}methyl>-3-(methylthio)benzenemethanol 4-aceetate hydrochloride]: the β-adrenergic stimulant activity result in assay [1] is given as “ability to block histamine-induced bronchoconstriction”. Also, in assay [2], the inhibition at 10 µM turned out to be 50%. In addition, the ED (40 mm Hg) in assay [3] was determined as 10 mg/kg. The inhibition at 1 mg/kg in assay [4] (1.0 mg./kg. intravenous, read-out: Actual percentage inhibition of heart rate increase above control level at the indicated dose) turned out to be 60%. For the same molecule, the ED50 in assay [4] (approximate intravenous dose causing 50% inhibition of isoproterenol-elicited heart rate increase, read-out: Adrenergic Activity Dog β-blockade AED50) is less than 1 mg/kg; in assay [5] it was 0.5 mg/kg.
